Measurements as given in patent publication US9381208B2, “Structure and use of 5′ phosphate oligonucleotides” (Rheinische Friedrich-Wilhelms-Universität, priority 2006, dated 2016).
Oligonucleotides are written 5' to 3', each unit as a sugar letter and its base; * is a phosphorothioate linkage, no mark a phosphodiester; rarer units and linkages stand in square brackets, end groups in braces. Plain capitals give the bases only. {ppp} = triphosphate group; r = 2'-OH (RNA)

Experiments:
human primary monocytes = experiment: IFN-α production in human primary monocytes transfected with RNA (ELISA); type: cell-based; details: for IFN-α production in monocytes: 200 ng RNA transfected, 24 hours, ELISA; for IFN-α induction (*100%) mean: monocytes from three donors, 36 hours after transfection, normalized to the mean induction level of all oligonucleotides (=100%); for IFN-α-inducing activity conferred by the 5′ 4-nucleotide sequence: adenosine-initiated in vitro transcribed RNA oligonucleotides, FIG. 13
PDC = experiment: IFN-α production in human PDC (ELISA); type: cell-based; details: 24 hours
Experimental: Human PBMC were prepared from whole blood donated by young healthy donors by Ficoll-Hypaque density gradient centrifugation (Biochrom, Berlin, Germany). PDC were isolated by MACS using the blood dendritic cell Ag (BCDA)-4 dendritic cell isolation kit from Miltenyi Biotec (Bergisch-Gladbach, Germany). Briefly, PDC were labelled with anti-BDCA-4 Ab coupled to colloidal paramagnetic microbeads and passed through a magnetic separation column twice (LS column, then MS column; Miltenyi Biotec). The purity of isolated PDC (lineage-negative, MHC-II-positive and CD123-positive cells) was above 95%. Before isolation of monocytes, PDC were depleted by MACS (LD column; Miltenyi Biotec) and then monocytes were isolated using the monocyte isolation kit II (Miltenyi Biotec). […] PDC cultures were additionally supplemented with 10 ng/ml IL-3 (R&D Systems). […] Vero (African green monkey kidney) and HEK 293T (human embryonic kidney) cells were maintained in Dulbecco's modified Eagle's medium supplemented with antibiotics and 5% or 10% foetal calf serum, respectively. BSR cells were propagated in Glasgow minimal essential medium supplemented with 10% newborn calf serum, phosphate broth, amino acids and antibiotics.
Human IFN-α was assessed in cell culture supernatants using the IFN-α module set (Bender MedSystems, Graz, Austria). The murine IP-10 ELISA was from Biosource (Solingen, Germany), the murine IFN-[…] ELISA was from PBL Biomedical Laboratories (Piscataway, USA). All ELISA procedures were performed, according to manufacturers' recommendations.

Compound	IFN-α induction (*100%) mean (human primary monocytes)	IFN-α-inducing activity conferred by the 5′ 4-nucleotide sequence (human primary monocytes)	further results
CCOCc1nc2c(N)nc3ccccc3c2n1CC(C)(C)O [R848, reference compound]			IFN-α production in monocytes (human primary monocytes): failed to produce IFN-α; IFN-α production in PDC (PDC): induce IFN-α in PDC
acucggggac acacacacac acacacacac (ACUCGGGGACACACACACACACACACACAC; RNA, 5' {ppp}, backbone not given here) [SEQ ID No. 137]	0.98 *100%		
auuuggggac acacacacac acacacacac (AUUUGGGGACACACACACACACACACACAC; RNA, 5' {ppp}, backbone not given here) [SEQ ID No. 138]	0.99 *100%		
aaggggggac acacacacac acacacacac (AAGGGGGGACACACACACACACACACACAC; RNA, 5' {ppp}, backbone not given here) [SEQ ID No. 149]	1.11 *100%	highest IFN-α-inducing activity	
aaacggggac acacacacac acacacacac (AAACGGGGACACACACACACACACACACAC; RNA, 5' {ppp}, backbone not given here) [SEQ ID No. 154]	1.15 *100%	highest IFN-α-inducing activity	
5′-pppAACCUGUCCUUCAAUUACC-3′ [RNA9.2s-5A]			IFN-α production in monocytes (human primary monocytes): paralleled RNA9.2-0A
augaggggac acacacacac acacacacac (AUGAGGGGACACACACACACACACACACAC; RNA, 5' {ppp}, backbone not given here) [SEQ ID No. 169]	1.32 *100%	highest IFN-α-inducing activity	
agcgggggac acacacacac acacacacac (AGCGGGGGACACACACACACACACACACAC; RNA, 5' {ppp}, backbone not given here) [SEQ ID No. 115]	0.52 *100%		
acguggggac acacacacac acacacacac (ACGUGGGGACACACACACACACACACACAC; RNA, 5' {ppp}, backbone not given here) [SEQ ID No. 125]	0.77 *100%		
aggcggggac acacacacac acacacacac (AGGCGGGGACACACACACACACACACACAC; RNA, 5' {ppp}, backbone not given here) [SEQ ID No. 131]	0.91 *100%		
acaaggggac acacacacac acacacacac (ACAAGGGGACACACACACACACACACACAC; RNA, 5' {ppp}, backbone not given here) [SEQ ID No. 142]	1.01 *100%	highest IFN-α-inducing activity	
acagggggac acacacacac acacacacac (ACAGGGGGACACACACACACACACACACAC; RNA, 5' {ppp}, backbone not given here) [SEQ ID No. 150]	1.12 *100%	highest IFN-α-inducing activity	
agucggggac acacacacac acacacacac (AGUCGGGGACACACACACACACACACACAC; RNA, 5' {ppp}, backbone not given here) [SEQ ID No. 140]	1.00 *100%	highest IFN-α-inducing activity	
acuuggggac acacacacac acacacacac (ACUUGGGGACACACACACACACACACACAC; RNA, 5' {ppp}, backbone not given here) [SEQ ID No. 118]	0.66 *100%		
agcuggggac acacacacac acacacacac (AGCUGGGGACACACACACACACACACACAC; RNA, 5' {ppp}, backbone not given here) [SEQ ID No. 120]	0.69 *100%		
agggggggac acacacacac acacacacac (AGGGGGGGACACACACACACACACACACAC; RNA, 5' {ppp}, backbone not given here) [SEQ ID No. 111]	0.22 *100%		
acgaggggac acacacacac acacacacac (ACGAGGGGACACACACACACACACACACAC; RNA, 5' {ppp}, backbone not given here) [SEQ ID No. 151]	1.14 *100%	highest IFN-α-inducing activity	
5′-pppGGGGCUGACCCUGAAGUUCAUCUUCCC-3′ [27-mer]			IFN-α induction level (human primary monocytes; 24 hours after stimulation, five donors, mean±SEM): 5876 ± 1785 pg/mL

Compound	IFN-α induction (*100%) mean (human primary monocytes)	IFN-α-inducing activity conferred by the 5′ 4-nucleotide sequence (human primary monocytes)	further results
5′-pppGGGAGACAGGGGGGGGGGGGGGGGGGGGGGG-3′ [tri-poly G]			IFN-α production in monocytes (human primary monocytes): equally potent
auggggggac acacacacac acacacacac (AUGGGGGGACACACACACACACACACACAC; RNA, 5' {ppp}, backbone not given here) [SEQ ID No. 172]	1.38 *100%	highest IFN-α-inducing activity	
aauuggggac acacacacac acacacacac (AAUUGGGGACACACACACACACACACACAC; RNA, 5' {ppp}, backbone not given here) [SEQ ID No. 119]	0.67 *100%		
accaggggac acacacacac acacacacac (ACCAGGGGACACACACACACACACACACAC; RNA, 5' {ppp}, backbone not given here) [SEQ ID No. 126]	0.79 *100%		
agcaggggac acacacacac acacacacac (AGCAGGGGACACACACACACACACACACAC; RNA, 5' {ppp}, backbone not given here) [SEQ ID No. 164]	1.29 *100%	highest IFN-α-inducing activity	
agagggggac acacacacac acacacacac (AGAGGGGGACACACACACACACACACACAC; RNA, 5' {ppp}, backbone not given here) [SEQ ID No. 114]	0.50 *100%		
aaauggggac acacacacac acacacacac (AAAUGGGGACACACACACACACACACACAC; RNA, 5' {ppp}, backbone not given here) [SEQ ID No. 146]	1.04 *100%	highest IFN-α-inducing activity	
aggaggggac acacacacac acacacacac (AGGAGGGGACACACACACACACACACACAC; RNA, 5' {ppp}, backbone not given here) [SEQ ID No. 161]	1.27 *100%	highest IFN-α-inducing activity	
aucgggggac acacacacac acacacacac (AUCGGGGGACACACACACACACACACACAC; RNA, 5' {ppp}, backbone not given here) [SEQ ID No. 162]	1.28 *100%	highest IFN-α-inducing activity	
auuaggggac acacacacac acacacacac (AUUAGGGGACACACACACACACACACACAC; RNA, 5' {ppp}, backbone not given here) [SEQ ID No. 171]	1.36 *100%	highest IFN-α-inducing activity	
acacggggac acacacacac acacacacac (ACACGGGGACACACACACACACACACACAC; RNA, 5' {ppp}, backbone not given here) [SEQ ID No. 135]	0.95 *100%		
auccggggac acacacacac acacacacac (AUCCGGGGACACACACACACACACACACAC; RNA, 5' {ppp}, backbone not given here) [SEQ ID No. 141]	1.01 *100%	highest IFN-α-inducing activity	
aaugggggac acacacacac acacacacac (AAUGGGGGACACACACACACACACACACAC; RNA, 5' {ppp}, backbone not given here) [SEQ ID No. 136]	0.96 *100%		
tri-GFPds: annealed dsRNA molecule of tri-GFPs (SEQ ID NO: 341) and tri-GFPa (SEQ ID NO: 348) (sense {ppp}-rGrGrGrGrCrUrGrArCrCrCrUrGrArArGrUrUrCrArUrCrUrU; antisense {ppp}-rGrGrGrGrArUrGrArArCrUrUrCrArGrGrGrUrCrArGrCrUrU; in vitro transcribed strands annealed as dsRNA)			IFN-α production in monocytes (human primary monocytes): comparable levels of IFN-α; IFN-α inducing activity after cleavage of the 5′ overhang by RNAse T1 (human primary monocytes; monocytes): completely abolished the IFN-α inducing activity
5′-pppAGGGAAGCGGGCAUGCGGCCAGCCAUAGCCGAUCA-3′ [AΦ6.5-35 n]			IFN-α production in monocytes (human primary monocytes): clear superiority
acgcggggac acacacacac acacacacac (ACGCGGGGACACACACACACACACACACAC; RNA, 5' {ppp}, backbone not given here) [SEQ ID No. 147]	1.08 *100%	highest IFN-α-inducing activity	
agccggggac acacacacac acacacacac (AGCCGGGGACACACACACACACACACACAC; RNA, 5' {ppp}, backbone not given here) [SEQ ID No. 128]	0.87 *100%		
